Consider 1 substance from paper PMC11335189, “Revealing molecular determinants governing mambalgin-3 pharmacology at acid-sensing ion channel 1 variants” (Cellular and Molecular Life Sciences: CMLS, 2024).

In assay [1] the target is T1, rASIC1b C208Q/N324K (CN/QK) (Rattus norvegicus, UniProt P55926, C208Q/N291K).
T1 construct: expressed in transfected cells; host or cells: Xenopus laevis oocytes injected with cRNA
T1 sequence (P55926 1-559 isoform P55926-3 C208Q/N324K): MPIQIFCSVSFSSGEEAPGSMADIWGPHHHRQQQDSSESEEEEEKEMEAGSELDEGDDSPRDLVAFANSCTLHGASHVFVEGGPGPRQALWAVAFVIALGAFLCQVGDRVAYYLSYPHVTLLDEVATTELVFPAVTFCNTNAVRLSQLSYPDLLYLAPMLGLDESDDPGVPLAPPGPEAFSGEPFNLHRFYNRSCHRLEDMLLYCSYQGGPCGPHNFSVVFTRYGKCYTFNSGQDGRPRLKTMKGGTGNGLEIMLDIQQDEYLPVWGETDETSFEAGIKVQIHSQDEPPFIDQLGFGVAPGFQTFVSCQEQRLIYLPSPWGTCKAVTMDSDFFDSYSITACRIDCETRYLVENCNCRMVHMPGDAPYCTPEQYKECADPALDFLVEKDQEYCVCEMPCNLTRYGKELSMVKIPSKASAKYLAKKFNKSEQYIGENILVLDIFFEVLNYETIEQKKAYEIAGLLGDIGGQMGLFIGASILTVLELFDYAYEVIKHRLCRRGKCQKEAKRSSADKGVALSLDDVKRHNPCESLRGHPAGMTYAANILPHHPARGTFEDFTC
Kind of assay: TEVC oocytes, rASIC1b double mutant CN/QK. The format is cell-based. The procedure:
(§1) Two-electrode voltage-clamp (TEVC) experiments using Xenopus laevis oocytes were conducted as previously described. Briefly, oocytes were surgically removed from anaesthetised female frogs, then treated with collagenase (~ 1 mg/ml, Sigma type I) for 2 h under agitation at room temperature. cRNAs were synthesised using a mMessage mMachine T7 or SP6 transcription kit (Thermo Fisher Scientific Australia Pty Ltd, Scoresby, VIC, Australia) and injected into healthy stage V–VI oocytes at 0.2–20 ng per cell. […] Membrane currents were recorded 2–7 days after cRNA-injection under voltage-clamp at -60 mV (Axon Axoclamp 900 A, Molecular Devices, CA, USA) using two standard glass microelectrodes of 0.5–1 MΩ resistance when filled with 3 M KCl solution. […]
(§2) Specific to this work, the standard protocol was for oocytes to be conditioned at pH 7.45 and channels stimulated every 60 s using a 5 s pH 5 or 6 application, unless stated otherwise. […] Activation curves were determined by conditioning oocytes at pH 8 (Fig. 2e − g; and Fig. 5a and b) or 7.45 (Fig. 6; and Supplementary Fig. 2d and c) for 55 s and applying low pH stimuli from 7.25 to 5.0 for 5 s. Steady-state desensitisation (SSD) was determined by applying conditioning solutions of pH values from 8 to 6 for 115 s prior to stimulation by a pH drop to 5 for 5 s. […] Control pH-dependence curves were determined in the absence of any Ma-3. […]

The target in the next assay is T2, rASIC1b C208Q (Rattus norvegicus, UniProt P55926, C208Q).
T2 construct: expressed in transfected cells; host or cells: Xenopus laevis oocytes (cRNA injection)
T2 sequence (P55926 1-559 isoform P55926-3 C208Q): T1 sequence (P55926 1-559 isoform P55926-3 C208Q/N324K) with K324N
Kind of assay: TEVC oocytes, rASIC1b C208Q mutant. The format is cell-based. Here is the method: as §1, §2

Where [2] appears, read: 300 nM Ma-3, conditioning pH 7.45, Hill fit, n = 5–6.
Setting [3] is: conditioning pH 7.45, pH 6 evoked currents, potentiation, 95% CI.

Where a chain is given by its changes, count along the chain named. Positions of bridges follow the written chain, without caps; N, C: chain ends. No end group written: not given here.

As for “H-SLKCYQHGKVVTCHRDMKFCYHNIGMPFRNLKLILQGCSSSCSETENNKCCSTDRCNK (disulfide 4-20, 13-38, 42-50, 51-56 (inferred)) [Ma-3, mambalgin-3]”, the results for the “pH50 of activation in presence of Ma-3” value (in assay [1] (setting [2]); on rASIC1b C208Q (setting [2])) were 6.29 and 6.27, respectively. Besides, the “Hill slope (95% CI)” value was 0.69–2.48 in assay [1] (setting [3]) and 1.26–2.01 at rASIC1b C208Q (setting [3]).
